# In patent US7521449B2, “4-arylmorpholin-3-one derivatives, their preparation and therapeutic use thereof” (Sanofi-Aventis, priority 2004, dated 2009):
# Counter-ions that a name gives are not always drawn.
# Experiments:
# NK2 receptor = target: T1, NK2 receptor (Mus musculus, UniProt P30549); assay: Spinning behavior caused by injection of [Nle10]NKA(4-10) into the striatum of mice, compounds administered orally; assay type: in vivo
# T1 construct: from tissue; host or cells: mouse striatum (in vivo)
# T1 sequence (P30549 1-384): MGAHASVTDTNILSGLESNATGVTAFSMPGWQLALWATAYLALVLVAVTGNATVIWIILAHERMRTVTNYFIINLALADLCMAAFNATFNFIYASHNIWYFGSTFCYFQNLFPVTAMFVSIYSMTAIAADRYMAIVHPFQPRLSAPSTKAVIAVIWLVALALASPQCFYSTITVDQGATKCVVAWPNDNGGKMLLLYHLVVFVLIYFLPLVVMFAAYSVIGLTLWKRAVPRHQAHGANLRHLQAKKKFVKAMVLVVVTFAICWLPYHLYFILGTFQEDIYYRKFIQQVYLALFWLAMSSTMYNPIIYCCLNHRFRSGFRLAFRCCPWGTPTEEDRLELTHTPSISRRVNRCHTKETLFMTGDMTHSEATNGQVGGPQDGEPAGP
# Method: The compounds of the present invention were also evaluated in vivo in a model of pharmacodynamics.
# In mice, injection into the striatum of a specific agonist of the NK2 receptor, [Nle^10]NKA(4-10), causes a spinning behavior, which is inhibited in a dose-dependent manner by the compounds according to the invention administered orally. This test was performed according to Poncelet et al. (Neurosci. Lett., 1993, 149, 40-42).
# [1] = target: T2, cloned human NK2 receptors (Homo sapiens, UniProt P21452); assay: Inhibition of the binding of [125I]His-neurokinin A to cloned human NK2 receptors expressed by CHO cells; conditions: binding of [125I]His-NKA, cloned human NK2 receptors expressed in CHO cells; read-out: inhibition constant Ki
# T2 construct: expressed in transfected cells; host or cells: CHO cells
# T2 sequence (P21452 1-398): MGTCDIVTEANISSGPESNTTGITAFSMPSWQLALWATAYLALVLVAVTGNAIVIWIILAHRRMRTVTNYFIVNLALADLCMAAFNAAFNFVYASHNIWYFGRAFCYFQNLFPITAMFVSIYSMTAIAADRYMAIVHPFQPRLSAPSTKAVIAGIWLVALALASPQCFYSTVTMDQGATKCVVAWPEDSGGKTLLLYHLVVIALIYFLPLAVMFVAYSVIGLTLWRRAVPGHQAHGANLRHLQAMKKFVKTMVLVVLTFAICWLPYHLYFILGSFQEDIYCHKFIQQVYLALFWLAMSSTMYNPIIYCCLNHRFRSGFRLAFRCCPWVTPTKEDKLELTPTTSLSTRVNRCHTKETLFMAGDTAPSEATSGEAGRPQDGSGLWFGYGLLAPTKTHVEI
# Method: The affinity of the compounds for the tachykinin receptors NK2 was evaluated in vitro by measuring the inhibition of the binding of [^125I]His-neurokinin A ([^125I]His-NKA) to cloned human NK2 receptors expressed by CHO cells (Y. Takeda et al., J. Neurochem., 1992, 59, 740-745).
# The trials were performed according to […]
smiles,measurement,setting,value
"CC(=O)NC1(c2cccc(F)c2)CCN(CCC2(c3ccc(Cl)c(Cl)c3)CN(c3ccccc3)C(=O)CO2)CC1 (single isomer, unassigned) [Compound 3, N-[1-[2-[2-(3,4-Dichlorophenyl)-5-oxo-4-phenylmorpholin-2-yl]ethyl]-4-(3-fluorophenyl)piperid-4-yl]acetamide hydrochloride, dextrorotatory isomer]",antagonism of the NK2 receptors (blocking the pharmacological effects caused by neurokinin A),NK2 receptor; conclusion from the pharmacological results,antagonists of the NK2 receptors
same,ED50,"NK2 receptor; mouse, po, mice, orally, spinning behavior caused by intrastriatal [Nle10]NKA(4-10), read-out: 50 effective dose (ED50)",0.023 mg/kg
same,Ki,[1],0.16 nM
